From patent US10004701B2, “Methods and compositions for treating infection” (UNIVERSITY OF ROCHESTER, priority 2012, dated 2018)
Structures can show the parent of a compound that is named as a salt. Where two headings read alike, the source gives them in different places.

Tests used:
Assay in all cases: AK assay 384-well format, Prestwick library screening
P. aeruginosa = assay type: cell-based, Pseudomonas aeruginosa; conditions: 50 μM final drug concentration; for fold induction at 50 µM: Pseudomonas aeruginosa, 3 h
[1] = system: A. baumannii strain 98-37-09; assay type: cell-based, Acinetobacter baumannii; conditions: 50 μM final drug concentration; for fold induction at 50 µM: Acinetobacter baumannii, 983709, 3 h
E. coli = assay type: cell-based, Escherichia coli; conditions: 50 μM final drug concentration; for fold induction at 50 µM: Escherichia coli, 3 h
[2] = system: S. aureus strain USA300-0114; assay type: cell-based, Staphylococcus aureus; conditions: 50 μM final drug concentration; for fold induction at 50 µM: Staphylococcus aureus, USA300, 3 h
E. cloacae = assay type: cell-based, Enterobacter cloacae; conditions: 50 μM final drug concentration; for fold induction at 50 µM: Enterobacter cloacae, 3 h
E. faecium = assay type: cell-based, Enterococcus faecium; conditions: 50 μM final drug concentration; for fold induction at 50 µM: Enterococcus faecium, 3 h
K. pneumoniae = assay type: cell-based, Klebsiella pneumoniae; conditions: 50 μM final drug concentration; for fold induction at 50 µM: Klebsiella pneumoniae, 3 h
[3] = planktonic P. aeruginosa, positive cutoff 3-fold increase, read-out: AK-based Prestwick library screening result, P. aeruginosa (fold increase in extracellular AK activity)
[4] = planktonic A. baumannii, positive cutoff 3-fold increase, read-out: AK-based Prestwick library screening result, A. baumannii (fold increase in extracellular AK activity)
[5] = planktonic E. coli, positive cutoff 3-fold increase, read-out: AK-based Prestwick library screening result, E. coli (fold increase in extracellular AK activity)
[6] = planktonic S. aureus, positive cutoff 3-fold increase, read-out: AK-based Prestwick library screening result, S. aureus (fold increase in extracellular AK activity)
[7] = planktonic E. cloacae, positive cutoff 3-fold increase, read-out: AK-based Prestwick library screening result, E. cloacae (fold increase in extracellular AK activity)
[8] = planktonic E. faecium, positive cutoff 3-fold increase, read-out: AK-based Prestwick library screening result, E. faecium (fold increase in extracellular AK activity)
[9] = planktonic K. pneumoniae, positive cutoff 3-fold increase, read-out: AK-based Prestwick library screening result, K. pneumoniae (fold increase in extracellular AK activity)
[10] = cutoff for positive-scoring molecules 3-fold increase

## CC[N+]1(C)[C@@H]2CC[C@H]1CC(OC(=O)[C@@H]1CC[C@@](C(=O)OC3C[C@H]4CC[C@@H](C3)[N+]4(C)CC)(c3ccccc3)c3ccccc31)C2.[Cl-].[Cl-] (stereo partly drawn) [beta-Belladonnine dichloroethylate]
P. aeruginosa; planktonic, […]
  AK-based Prestwick Library Screening Results, P. aeruginosa (fold increase in extracellular AK activity): 1.2
[1]; planktonic, […]
  AK-based Prestwick Library Screening Results, A. baumannii (fold increase in extracellular AK activity): 1.0
E. coli; planktonic, […]
  AK-based Prestwick Library Screening Results, E. coli (fold increase in extracellular AK activity): 1.2
[2]; planktonic, […]
  AK-based Prestwick Library Screening Results, S. aureus (fold increase in extracellular AK activity): 1.3
E. cloacae; planktonic, […]
  AK-based Prestwick Library Screening Results, E. cloacae (fold increase in extracellular AK activity): 1.3
E. faecium; planktonic, […]
  AK-based Prestwick Library Screening Results, E. faecium (fold increase in extracellular AK activity): 1.0
K. pneumoniae; planktonic, […]
  AK-based Prestwick Library Screening Results, K. pneumoniae (fold increase in extracellular AK activity): 0.9

## COc1ccn(C)c(=O)c1C#N [Ricinine]
P. aeruginosa; planktonic, […], read-out: AK-based Prestwick Library Screening Results, P. aeruginosa (fold increase in extracellular AK activity)
  fold induction at 50 µM: 0.7
[1]; planktonic, […], read-out: AK-based Prestwick Library Screening Results, A. baumannii (fold increase in extracellular AK activity)
  fold induction at 50 µM: 0.8
E. coli; planktonic, […], read-out: AK-based Prestwick Library Screening Results, E. coli (fold increase in extracellular AK activity)
  fold induction at 50 µM: 0.8
[2]; planktonic, […], read-out: AK-based Prestwick Library Screening Results, S. aureus (fold increase in extracellular AK activity)
  fold induction at 50 µM: 0.9
E. cloacae; planktonic, […], read-out: AK-based Prestwick Library Screening Results, E. cloacae (fold increase in extracellular AK activity)
  fold induction at 50 µM: 1.3
E. faecium; planktonic, […], read-out: AK-based Prestwick Library Screening Results, E. faecium (fold increase in extracellular AK activity)
  fold induction at 50 µM: 0.9
K. pneumoniae; planktonic, […], read-out: AK-based Prestwick Library Screening Results, K. pneumoniae (fold increase in extracellular AK activity)
  fold induction at 50 µM: 0.8

## N[C@@H]1CONC1=O [D-cycloserine]
P. aeruginosa; planktonic P. aeruginosa, positive cutoff 3-fold increase
  AK-based Prestwick library screening result, P. aeruginosa (fold increase in extracellular AK activity): 1.2
[1]; planktonic A. baumannii, positive cutoff 3-fold increase
  AK-based Prestwick library screening result, A. baumannii (fold increase in extracellular AK activity): 1.0
E. coli; planktonic E. coli, positive cutoff 3-fold increase
  AK-based Prestwick library screening result, E. coli (fold increase in extracellular AK activity): 1.4
[2]; planktonic S. aureus, positive cutoff 3-fold increase
  AK-based Prestwick library screening result, S. aureus (fold increase in extracellular AK activity): 1.4
E. cloacae; planktonic E. cloacae, positive cutoff 3-fold increase
  AK-based Prestwick library screening result, E. cloacae (fold increase in extracellular AK activity): 1.2
E. faecium; planktonic E. faecium, positive cutoff 3-fold increase
  AK-based Prestwick library screening result, E. faecium (fold increase in extracellular AK activity): 1.2
K. pneumoniae; planktonic K. pneumoniae, positive cutoff 3-fold increase
  AK-based Prestwick library screening result, K. pneumoniae (fold increase in extracellular AK activity): 1.1

## CC(C)NCC(O)c1ccc(NS(C)(=O)=O)cc1 (stereo not drawn) [Sotalol hydrochloride]
P. aeruginosa; cutoff for positive-scoring molecules 3-fold increase, read-out: AK-based Prestwick Library Screening Results, P. aeruginosa (fold increase in extracellular AK activity)
  fold induction at 50 µM: 0.4
[1]; cutoff for positive-scoring molecules 3-fold increase, read-out: AK-based Prestwick Library Screening Results, A. baumannii (fold increase in extracellular AK activity)
  fold induction at 50 µM: 0.5
E. coli; cutoff for positive-scoring molecules 3-fold increase, read-out: AK-based Prestwick Library Screening Results, E. coli (fold increase in extracellular AK activity)
  fold induction at 50 µM: 0.4
[2]; cutoff for positive-scoring molecules 3-fold increase, read-out: AK-based Prestwick Library Screening Results, S. aureus (fold increase in extracellular AK activity)
  fold induction at 50 µM: 0.4
E. cloacae; cutoff for positive-scoring molecules 3-fold increase, read-out: AK-based Prestwick Library Screening Results, E. cloacae (fold increase in extracellular AK activity)
  fold induction at 50 µM: 0.4
E. faecium; cutoff for positive-scoring molecules 3-fold increase, read-out: AK-based Prestwick Library Screening Results, E. faecium (fold increase in extracellular AK activity)
  fold induction at 50 µM: 0.8
K. pneumoniae; cutoff for positive-scoring molecules 3-fold increase, read-out: AK-based Prestwick Library Screening Results, K. pneumoniae (fold increase in extracellular AK activity)
  fold induction at 50 µM: 0.5

## CO[C@H]1C[C@H](O[C@H]2[C@H](C)[C@@H](O[C@@H]3O[C@H](C)C[C@H](N(C)C)[C@H]3OC(C)=O)[C@@H](C)C[C@@]3(CO3)C(=O)[C@H](C)[C@@H](OC(C)=O)[C@@H](C)[C@@H](C)OC(=O)[C@@H]2C)O[C@@H](C)[C@@H]1OC(C)=O [Troleandomycin]
P. aeruginosa; 384-well format, cutoff for positive-scoring molecules 3-fold increase, read-out: AK-based Prestwick Library Screening Results, P. aeruginosa (increase in extracellular AK activity)
  fold induction at 50 µM: 0.7
[1]; 384-well format, cutoff for positive-scoring molecules 3-fold increase, read-out: AK-based Prestwick Library Screening Results, A. baumannii (increase in extracellular AK activity)
  fold induction at 50 µM: 0.8
E. coli; 384-well format, cutoff for positive-scoring molecules 3-fold increase, read-out: AK-based Prestwick Library Screening Results, E. coli (increase in extracellular AK activity)
  fold induction at 50 µM: 0.9
[2]; 384-well format, cutoff for positive-scoring molecules 3-fold increase, read-out: AK-based Prestwick Library Screening Results, S. aureus (increase in extracellular AK activity)
  fold induction at 50 µM: 6.5
E. cloacae; 384-well format, cutoff for positive-scoring molecules 3-fold increase, read-out: AK-based Prestwick Library Screening Results, E. cloacae (increase in extracellular AK activity)
  fold induction at 50 µM: 1.1
E. faecium; 384-well format, cutoff for positive-scoring molecules 3-fold increase, read-out: AK-based Prestwick Library Screening Results, E. faecium (increase in extracellular AK activity)
  fold induction at 50 µM: 1
K. pneumoniae; 384-well format, cutoff for positive-scoring molecules 3-fold increase, read-out: AK-based Prestwick Library Screening Results, K. pneumoniae (increase in extracellular AK activity)
  fold induction at 50 µM: 0.6

## COc1ccccc1OCC(O)CN1CCN(CC(=O)Nc2c(C)cccc2C)CC1 (stereo not drawn) [Ranolazine]
P. aeruginosa; [3]
  fold induction at 50 µM: 1
[1]; [4]
  fold induction at 50 µM: 1.2
E. coli; [5]
  fold induction at 50 µM: 1.2
[2]; [6]
  fold induction at 50 µM: 1
E. cloacae; [7]
  fold induction at 50 µM: 1.4
E. faecium; [8]
  fold induction at 50 µM: 0.9
K. pneumoniae; [9]
  fold induction at 50 µM: 0.9

## C[C@@H]1NCCc2cc(O)c(O)cc21 [Salsolinol hydrobromide]
P. aeruginosa; planktonic, cutoff for positive 3-fold increase, read-out: AK-based Prestwick Library Screening Results, P. aeruginosa (fold increase in extracellular AK activity)
  fold induction at 50 µM: 1.1
[1]; planktonic, cutoff for positive 3-fold increase, read-out: AK-based Prestwick Library Screening Results, A. baumannii (fold increase in extracellular AK activity)
  fold induction at 50 µM: 1.2
E. coli; planktonic, cutoff for positive 3-fold increase, read-out: AK-based Prestwick Library Screening Results, E. coli (fold increase in extracellular AK activity)
  fold induction at 50 µM: 1.2
[2]; planktonic, cutoff for positive 3-fold increase, read-out: AK-based Prestwick Library Screening Results, S. aureus (fold increase in extracellular AK activity)
  fold induction at 50 µM: 1.1
E. cloacae; planktonic, cutoff for positive 3-fold increase, read-out: AK-based Prestwick Library Screening Results, E. cloacae (fold increase in extracellular AK activity)
  fold induction at 50 µM: 1.5
E. faecium; planktonic, cutoff for positive 3-fold increase, read-out: AK-based Prestwick Library Screening Results, E. faecium (fold increase in extracellular AK activity)
  fold induction at 50 µM: 1
K. pneumoniae; planktonic, cutoff for positive 3-fold increase, read-out: AK-based Prestwick Library Screening Results, K. pneumoniae (fold increase in extracellular AK activity)
  fold induction at 50 µM: 1.2

## CCN[C@H]1C[C@H](C)S(=O)(=O)c2sc(S(N)(=O)=O)cc21 [Dorzolamide hydrochloride]
P. aeruginosa; [3]
  fold induction at 50 µM: 0.9
[1]; [4]
  fold induction at 50 µM: 1.2
E. coli; [5]
  fold induction at 50 µM: 1.1
[2]; [6]
  fold induction at 50 µM: 1
E. cloacae; [7]
  fold induction at 50 µM: 1.3
E. faecium; [8]
  fold induction at 50 µM: 2.3
K. pneumoniae; [9]
  fold induction at 50 µM: 1.1

## CC(C)(C)NC[C@@H](O)COc1cccc2c1CCCC2=O.Cl [(+)-Levobunolol hydrochloride]
P. aeruginosa; [10]
  AK-based Prestwick Library Screening Results, P. aeruginosa (fold increase in extracellular AK activity): 1.2
[1]; [10]
  AK-based Prestwick Library Screening Results, A. baumannii (fold increase in extracellular AK activity): 0.9
E. coli; [10]
  AK-based Prestwick Library Screening Results, E. coli (fold increase in extracellular AK activity): 1.2
[2]; [10]
  AK-based Prestwick Library Screening Results, S. aureus (fold increase in extracellular AK activity): 1.3
E. cloacae; [10]
  AK-based Prestwick Library Screening Results, E. cloacae (fold increase in extracellular AK activity): 1.5
E. faecium; [10]
  AK-based Prestwick Library Screening Results, E. faecium (fold increase in extracellular AK activity): 0.9
K. pneumoniae; [10]
  AK-based Prestwick Library Screening Results, K. pneumoniae (fold increase in extracellular AK activity): 0.9
